Data: the NIST ThermoML archive (doi:10.1016/j.jct.2017.03.006)

Experiment: xn = mol fraction of the nth substance listed
Settings: 313.15 K, Liquid; for viscosity: Concentric cylinders viscometry; for mass density: Vibrating tube method

Cc1ccc(C)c(C)c1 [1,2,4-trimethylbenzene] + CCC(C)O
Settings | mass density [kg/m3] | viscosity [mPa·s]
100 kPa, x2 = 0 | 859 | –
100 kPa, x2 = 0.1 | 852.6 | –
100 kPa, x2 = 0.1989 | 846.6 | –
100 kPa, x2 = 0.3011 | 840.2 | –
100 kPa, x2 = 0.4002 | 834 | –
100 kPa, x2 = 0.5001 | 827.5 | –
100 kPa, x2 = 0.5298 | – | 0.773
100 kPa, x2 = 0.5997 | 820.6 | –
100 kPa, x2 = 0.6001 | – | 0.84
100 kPa, x2 = 0.6999 | 813.4 | –
100 kPa, x2 = 0.7001 | – | 0.94
100 kPa, x2 = 0.7997 | – | 1.09
100 kPa, x2 = 0.7999 | 806 | –
100 kPa, x2 = 0.9 | 797.9 | –
100 kPa, x2 = 0.9001 | – | 1.35
1000 kPa, x2 = 0 | 859.7 | –
1000 kPa, x2 = 0.1 | 853.3 | –
1000 kPa, x2 = 0.1989 | 847.2 | –
1000 kPa, x2 = 0.3011 | 840.9 | –
1000 kPa, x2 = 0.4002 | 834.7 | –
1000 kPa, x2 = 0.5001 | 828.2 | –
1000 kPa, x2 = 0.5997 | 821.3 | –
1000 kPa, x2 = 0.6999 | 814.2 | –
1000 kPa, x2 = 0.7999 | 806.7 | –
1000 kPa, x2 = 0.9 | 798.7 | –
2000 kPa, x2 = 0 | 860.4 | –
2000 kPa, x2 = 0.1 | 854.1 | –
2000 kPa, x2 = 0.1989 | 848 | –
2000 kPa, x2 = 0.3011 | 841.7 | –
2000 kPa, x2 = 0.4002 | 835.6 | –
2000 kPa, x2 = 0.5001 | 829.1 | –
2000 kPa, x2 = 0.5997 | 822.2 | –
2000 kPa, x2 = 0.6999 | 815 | –
2000 kPa, x2 = 0.7999 | 807.6 | –
2000 kPa, x2 = 0.9 | 799.6 | –
5000 kPa, x2 = 0 | 862.6 | –
5000 kPa, x2 = 0.1 | 856.3 | –
5000 kPa, x2 = 0.1989 | 850.3 | –
5000 kPa, x2 = 0.3011 | 844.1 | –
5000 kPa, x2 = 0.4002 | 838 | –
5000 kPa, x2 = 0.5001 | 831.5 | –
5000 kPa, x2 = 0.5997 | 824.6 | –
5000 kPa, x2 = 0.6999 | 817.5 | –
5000 kPa, x2 = 0.7999 | 810.1 | –
5000 kPa, x2 = 0.9 | 802.1 | –
10000 kPa, x2 = 0 | 866 | –
10000 kPa, x2 = 0.1 | 860 | –
10000 kPa, x2 = 0.1989 | 854.1 | –
10000 kPa, x2 = 0.3011 | 847.9 | –
10000 kPa, x2 = 0.4002 | 841.7 | –
10000 kPa, x2 = 0.5001 | 835.4 | –
10000 kPa, x2 = 0.5997 | 828.5 | –
10000 kPa, x2 = 0.6999 | 821.5 | –
10000 kPa, x2 = 0.7999 | 814.2 | –
10000 kPa, x2 = 0.9 | 806.2 | –
15000 kPa, x2 = 0 | 869.3 | –
15000 kPa, x2 = 0.1 | 863.5 | –
15000 kPa, x2 = 0.1989 | 857.6 | –
15000 kPa, x2 = 0.3011 | 851.5 | –
15000 kPa, x2 = 0.4002 | 845.4 | –
15000 kPa, x2 = 0.5001 | 839.1 | –
15000 kPa, x2 = 0.5997 | 832.3 | –
15000 kPa, x2 = 0.6999 | 825.3 | –
15000 kPa, x2 = 0.7999 | 818 | –
15000 kPa, x2 = 0.9 | 810.1 | –
20000 kPa, x2 = 0 | 872.6 | –
20000 kPa, x2 = 0.1 | 866.8 | –
20000 kPa, x2 = 0.1989 | 861 | –
20000 kPa, x2 = 0.3011 | 854.9 | –
20000 kPa, x2 = 0.4002 | 848.9 | –
20000 kPa, x2 = 0.5001 | 842.6 | –
20000 kPa, x2 = 0.5997 | 835.9 | –
20000 kPa, x2 = 0.6999 | 829 | –
20000 kPa, x2 = 0.7999 | 821.7 | –
20000 kPa, x2 = 0.9 | 813.8 | –
30000 kPa, x2 = 0 | 878.7 | –
30000 kPa, x2 = 0.1 | 873.2 | –
30000 kPa, x2 = 0.1989 | 867.5 | –
30000 kPa, x2 = 0.3011 | 861.5 | –
30000 kPa, x2 = 0.4002 | 855.6 | –
30000 kPa, x2 = 0.5001 | 849.4 | –
30000 kPa, x2 = 0.5997 | 842.8 | –
30000 kPa, x2 = 0.6999 | 835.8 | –
30000 kPa, x2 = 0.7999 | 828.6 | –
30000 kPa, x2 = 0.9 | 820.8 | –
40000 kPa, x2 = 0 | 884.5 | –
40000 kPa, x2 = 0.1 | 879.2 | –
40000 kPa, x2 = 0.1989 | 873.5 | –
40000 kPa, x2 = 0.3011 | 867.6 | –
40000 kPa, x2 = 0.4002 | 861.7 | –
40000 kPa, x2 = 0.5001 | 855.8 | –
40000 kPa, x2 = 0.5997 | 849 | –
40000 kPa, x2 = 0.6999 | 842.2 | –
40000 kPa, x2 = 0.7999 | 835 | –
40000 kPa, x2 = 0.9 | 827.3 | –
50000 kPa, x2 = 0 | 889.9 | –
50000 kPa, x2 = 0.1 | 884.8 | –
50000 kPa, x2 = 0.1989 | 879.3 | –
50000 kPa, x2 = 0.3011 | 873.4 | –
50000 kPa, x2 = 0.4002 | 867.5 | –
50000 kPa, x2 = 0.5001 | 861.6 | –
